Assay results taken from patent US10780074B2, “Compounds and uses thereof” (Sunovion Pharmaceuticals Inc., priority 2017, dated 2020).
Structures can show the parent of a compound that is named as a salt.

Tested on: behaviors of compound-treated mice
Test: Neuropharmacological Assay (SmartCube)
Assay type: in vivo
Conditions: for minimal effective dose: Mus musculus, ip, 0.25 h, dose having 50% or more total activity in SmartCube, i.p., read-out: MED (minimal effective dose); for AD: ADHD (probability that activity matches class) / AG: analgesic (probability that activity matches class) / AX: anxiolytic (probability that activity matches class) / CE: cognitive enhancer (probability that activity matches class) / DP: anti-depressant (probability that activity matches class) / MS: mood stabilizer (probability that activity matches class) / PS: anti-psychotic (probability that activity matches class) / SD: sedative hypnotic (probability that activity matches class) / UN: uncharacterized CNS activity (probability that activity matches class): i.p. 15 min before behavioral test, most efficacious dose(s) of 3 doses
Outline: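 Mice dosed i.p. 15 min before testing, with compound in N-methyl-2-pyrrolidone/PEG/propylene glycol, were video-recorded and algorithmically compared with reference-drug behavioral signatures. This gave class-match probabilities (antidepressant, anxiolytic, etc.) at the most efficacious of 3 doses. MED was defined as the dose with ≥50% total activity, usually tested across 0.3–30 mpk.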

SMILES | minimal effective dose [mg/kg] | AD: ADHD (probability that activity matches class) | AG: analgesic (probability that activity matches class) | AX: anxiolytic (probability that activity matches class) | CE: cognitive enhancer (probability that activity matches class) | DP: anti-depressant (probability that activity matches class) | MS: mood stabilizer (probability that activity matches class) | PS: anti-psychotic (probability that activity matches class) | SD: sedative hypnotic (probability that activity matches class) | UN: uncharacterized CNS activity (probability that activity matches class)
NC[C@@H]1OCc2c(-c3cccnc3)cccc21 [Compound 35, (R)-(4-(Pyridin-3-yl)-1,3-dihydroisobenzofuran-1-yl)methanamine hydrochloride] | 3 to 10 | ++ (5% ≤ ++ <25%) | + (LOQ ≤ + <5%) | ++ (5% ≤ ++ <25%) | + (LOQ ≤ + <5%) | ++++ (50% ≤ ++++) | + (LOQ ≤ + <5%) | + (LOQ ≤ + <5%) | + (LOQ ≤ + <5%) | + (LOQ ≤ + <5%)
CNC[C@H]1OCCc2c(-c3ccon3)cccc21 (single isomer, unassigned) [Compound 91, hydrochloride salt] | ≤ 3 | ++++ (50% ≤ ++++) | + (LOQ ≤ + <5%) | ++ (5% ≤ ++ <25%) | + (LOQ ≤ + <5%) | ++++ (50% ≤ ++++) | + (LOQ ≤ + <5%) | + (LOQ ≤ + <5%) | ++ (5% ≤ ++ <25%) | +++ (25% ≤ +++ <50%)
CNC[C@H]1OCCCc2c(-c3ccncn3)cccc21 (single isomer, unassigned) [Compound 165, hydrochloride salt] | 10 to 30 | + (LOQ ≤ + <5%) | + (LOQ ≤ + <5%) | + (LOQ ≤ + <5%) | + (LOQ ≤ + <5%) | ++ (5% ≤ ++ <25%) | + (LOQ ≤ + <5%) | + (LOQ ≤ + <5%) | + (LOQ ≤ + <5%) | + (LOQ ≤ + <5%)
CNCC1OCCc2c(-c3ccncn3)cccc21 (stereo not shown) [Compound 53, N-Methyl-1-(5-(pyrimidin-4-yl)isochroman-1-yl)methanamine hydrochloride salt] | 3 to 10 | ++ (5% ≤ ++ <25%) | + (LOQ ≤ + <5%) | ++ (5% ≤ ++ <25%) | + (LOQ ≤ + <5%) | ++++ (50% ≤ ++++) | + (LOQ ≤ + <5%) | + (LOQ ≤ + <5%) | + (LOQ ≤ + <5%) | + (LOQ ≤ + <5%)
CNC[C@@H]1OCCc2c(-c3cncnc3)cccc21 (single isomer, unassigned) [Compound 29, hydrochloride salt] | > 30 | + (LOQ ≤ + <5%) | + (LOQ ≤ + <5%) | + (LOQ ≤ + <5%) | + (LOQ ≤ + <5%) | + (LOQ ≤ + <5%) | + (LOQ ≤ + <5%) | + (LOQ ≤ + <5%) | + (LOQ ≤ + <5%) | + (LOQ ≤ + <5%)
CNC[C@H]1OCCCc2c(-c3ccncc3)cccc21 (single isomer, unassigned) [Compound 149] | ≤ 3 | ++ (5% ≤ ++ <25%) | + (LOQ ≤ + <5%) | ++ (5% ≤ ++ <25%) | + (LOQ ≤ + <5%) | ++++ (50% ≤ ++++) | + (LOQ ≤ + <5%) | + (LOQ ≤ + <5%) | + (LOQ ≤ + <5%) | ++ (5% ≤ ++ <25%)
NC[C@H]1OCCc2ccc(-c3cccnc3)cc21 (single isomer, unassigned) [Compound 12, hydrochloride] | 10 to 30 | + (LOQ ≤ + <5%) | + (LOQ ≤ + <5%) | + (LOQ ≤ + <5%) | + (LOQ ≤ + <5%) | ++++ (50% ≤ ++++) | + (LOQ ≤ + <5%) | ++ (5% ≤ ++ <25%) | ++ (5% ≤ ++ <25%) | + (LOQ ≤ + <5%)
CNC[C@@H]1OCCc2c(-c3ccccc3)cccc21 (single isomer, unassigned) [Compound 128, hydrochloride salt] | 10 to 30 | + (LOQ ≤ + <5%) | + (LOQ ≤ + <5%) | + (LOQ ≤ + <5%) | + (LOQ ≤ + <5%) | + (LOQ ≤ + <5%) | + (LOQ ≤ + <5%) | + (LOQ ≤ + <5%) | + (LOQ ≤ + <5%) | + (LOQ ≤ + <5%)
NC[C@H]1OCCc2c(-c3cn[nH]c3)cccc21 [Compound 117, (S)-(5-(1H-pyrazol-4-yl)isochroman-1-yl)methanamine hydrochloride salt] | 3 to 10 | + (LOQ ≤ + <5%) | + (LOQ ≤ + <5%) | ++ (5% ≤ ++ <25%) | + (LOQ ≤ + <5%) | ++ (5% ≤ ++ <25%) | + (LOQ ≤ + <5%) | ++ (5% ≤ ++ <25%) | ++ (5% ≤ ++ <25%) | ++ (5% ≤ ++ <25%)
CNC[C@H]1OCCc2c(-c3ccnnc3)cccc21 (single isomer, unassigned) [Compound 77, hydrochloride salt] | ≤ 3 | + (LOQ ≤ + <5%) | + (LOQ ≤ + <5%) | ++ (5% ≤ ++ <25%) | + (LOQ ≤ + <5%) | ++++ (50% ≤ ++++) | + (LOQ ≤ + <5%) | + (LOQ ≤ + <5%) | + (LOQ ≤ + <5%) | + (LOQ ≤ + <5%)
